Tested on: Panc-1 cells
Assay: Detachment assay, Panc-1
Type: cell-based, human
Conditions: for detachment: 48 hours
Method: Cell Viability Assay—The Cells were treated with peptides for 24 hours at different peptide concentrations. The 3-(4,5-dimethylthiazol-2-yl)-5-(3-carboxymethoxyphenyl)-2-(4-sulfophenyl)-2H-tetrazolium compound from Promega Viability kit (Madison, Ill.) was added, and the cells were incubated at 37° C. for 1-2 hours. The optical density on 96-plate was analyzed with a microplate reader at 490 nm to determine cell viability. In addition, cells were stained with trypan blue after 24 hours of treatment with Y15 and the percent of cells that stained positive were determined with a hemacytometer. Cell adhesion assay—The poly-L-Lysine or Collagen (5 μg/ml) coated 96-well plates were blocked with the blocking buffer (medium with 0.5% BSA) for 1 hour at 37 C. The cells were pre-treated with drugs for 3 hours and plated for adhesion at 4×10^5 cells. Cells were incubated at 37 C for 1 hour, fixed in 3.7% formaldehyde, washed in 0.1% BSA in PBS and stained with crystal violet (5 mg/ml in 2% ethanol) for 10 minutes. Then 2% SDS was added to the dried plated and OD at 590 nm was measured for detecting cell adhesion. […] Protein concentrations were determined using a Bio-Rad Kit. The boiled samples were loaded on Ready SDS-10% PAGE gels (Bio Rad, Inc) and used for Western blot analysis with the protein-specific antibody. […] We calculated the percent of detachment by dividing the number of detached cells by the total number of cells. The percent of detached cells was calculated in three independent experiments. […] The percent of apoptotic cells was calculated as a ratio of apoptotic detached cells divided by the total number of cells in three independent experiments in several fields with the fluorescent microscope. For each experiment 300 cells per treatment were counted. […]

For `Cl.Cl.Cl.Cl.Nc1cc(N)c(N)cc1N` [Y15, 1,2,4,5-benzenetetraamine tetrahydrochloride], the “detachment compared with TAE226” value was “more detachment than TAE226”, the detachment (10 μM) was 13% and the detachment (50 μM) was 32%.

From patent US8314150B2, “Kinase protein binding inhibitors” (priority 2008, dated 2012)
